Non-standard residues stand in square brackets, D forms with d. Residues, ends and D or L forms follow the SMILES beside them. ξ: configuration not given here. *: point of attachment. ξPhe(4-NO2) = NC(Cc1ccc([N+](=O)[O-])cc1)C(=O)O; Boc = CC(C)(C)OC(=O)*; OBn = c1ccc(CO*)cc1
| melting point [°C] | SMILES |
| --- | --- |
| 96 | CCOC(=O)C(C)Oc1ccc(N(C)c2cc3ccccc3c(O)n2)cc1 (configuration not stated) |
| 60 to 62 | CCOC(=O)Cc1ccc2c(c1)sc1ccccc12 |
| 112 to 113 | Cc1oc(-c2ccccc2)nc1CCc1ccc(CCCC2OC(=O)NC2=O)cc1 (configuration not stated) |
| 284 to 285 | O=C(O)c1ccc(-c2nc(-c3ccc(Cl)cc3)cs2)cc1 |
| 58 to 59 | Cc1cc(OCc2ccccc2)c(C)cc1CO |
| 169 to 174 | CCOC(Cc1cnc2ccc(OCc3ccc([N+](=O)[O-])cc3)cc2c1)C(=O)O (configuration not stated) |
| 126 to 128 | N#Cc1ccc(C=CC(=O)c2ccccc2N)cc1 |
| 122 to 124 | Cc1onc(-c2ccccc2)c1C(=O)NCCCCl |
| 174 to 175 | CCOC(=O)c1[nH]c(C)c(-c2ccc(F)cc2)c1C |
| 38 to 40 | N#Cc1cccc(OCc2ccccc2)c1 |
| 126 to 128 | CCCn1c(=O)c2c(N)n(CCCl)nc2n(Cc2ccccc2)c1=O |
| 142 | O=C1C2=C(SCCN2)C2CSCCN12 (configuration not stated) |
| 112 | Cc1ccccc1-c1cc(Cl)ncc1C#N |
| 183 to 185 | CC(C)CCNC(Nc1ccccc1)=C(C#N)C#N |
| 74 | O=C(NN=C(c1ccccc1)c1ccncc1)c1cccnc1 |
| 172 | COc1ccc(-c2cncc(OC3SCC(OC(C)=O)C(OC(C)=O)C3OC(C)=O)c2)cn1 (configuration not stated) |
| 146 to 148 | CCCc1c(OCCCOc2ccc(C(=O)O)cc2Cl)ccc(C(C)=O)c1OC(C)=O |
| 165 to 170 | CC1c2onc(-c3ccc(Cl)cc3)c2CCC1(C)C(=O)O (configuration not stated) |
| 50 to 55 | CCC(C)(Oc1ccc(-c2ccccc2)cc1OC)C(=O)O (configuration not stated) |
| 144 to 150 | CSc1nc(Cl)c(C#N)c(N2CCc3ccccc3CC2)n1 |
| 98 to 102 | COC(=O)C=C(C)c1ccc(CCC(C)(C)NCC(O)c2ccccc2)cc1 (configuration not stated) |
| 132 | O=C(CCc1nc(-c2ccccn2)no1)NC1CCN(Cc2ccc(Cl)c(F)c2)CC1 |
| 266 to 268 | CC1(C)N=C(O)N=C(NC(=O)c2nc(Cl)c(N)nc2N)N1 |
| 125 to 126 | Cc1ccccc1-c1cccc(Nc2ccccc2)c1C#N |
| 141 to 142 | CSc1cccc2c3c(n(Cc4ccc(Cl)cc4)c12)C(CC(=O)O)CCC3 (configuration not stated) |

| melting point [°C] | SMILES |
| --- | --- |
| 108 to 129 | CC(NC(=O)C1C(O)N(Cc2ccccc2)C(=O)N1Cc1ccccc1)c1cccs1 (configuration not stated) |
| 190 to 192 | Cc1c(O)c(C(C)(C)C)cc2c1CCC1C2CCC2(C)C(=O)CCC12 (configuration not stated) |
| 38 to 39 | COC12CC(C)(C)C(O1)C(=O)CC2C (configuration not stated) |
| 260 | COc1ccc(C(=O)Oc2cccc3cc4cccc(OC(=O)c5ccc(OC)cc5)c4c(OC(=O)c4ccc(OC)cc4)c23)cc1 |
| 115 to 116 | O=C(NCCN1CCCC1)c1cccc(-c2cccc(OCCc3ccc(Cl)cc3Cl)n2)c1 |
| 62 to 63.5 | FC(F)(F)c1nc(Cl)c2ccccc2n1 |
| 108 to 110 | N#CC1(c2ccccc2)CCC2(CC1)OCCO2 |
| 111 to 114 | C#CCN(C(=O)c1cnccc1C(F)(F)F)S(=O)(=O)c1cccc(C)c1 |
| 230 to 233 | CCc1cc(NCc2ccc(-c3ccccc3C#N)cc2)n2nccc2n1 |
| 187 to 188 | CCOc1ccc2nc(N)c3nc4n(c3c2c1)C(C)COC4 (configuration not stated) |
| 148 to 149 | O=C(O)C=C1SC(=NCCc2ccccc2)N(CCc2ccccc2)C1=O |
| 220 to 224 | CC(=O)Oc1cc(C)cc(C(=O)N[C@@H](Cc2ccccc2)[C@H](O)C(=O)O)c1C |
| 76 to 78 | Cc1[nH]c2ccc(CCN3CCCC3)cc2c1C(=O)OCc1ccccc1 |
| 141 to 142 | CC(=O)OC1CCC2(C)C(CCC3C2CCC2(C)C(C(C)=O)CCC32)C1 (configuration not stated) |
| 170 to 173 | O=C(NC1CCCCC1)Oc1ccc(N=C=S)cc1 |
| 47 to 49 | CCOC(=O)C1=CCCC[C@H]1S(=O)(=O)Nc1ccc(F)cc1Cl |
| 51 to 54 | CCN(CC)CCNC(=O)c1[nH]c(-c2ccc(Cl)cc2)c2ccccc12 |
| 126 to 127 | CC(=O)OCc1cccc2c1nc(-c1c(F)cccc1F)n2Cc1c(F)cccc1F |
| 168 to 170 | Cc1ccc(C(=O)c2cccnc2C(=O)O)cc1 |
| 100 to 107 | O=[N+]([O-])c1cc(C(F)(F)F)cc2c(Cl)ccnc12 |
| 97 | COc1ccc(-c2nc(-c3ccc[nH]3)n(CCCBr)c2-c2ccc(OC)cc2)cc1 |
| > 300 | O=c1[nH]c(=O)n2c(c1-c1ccccc1)SCCC2 |
| 274 to 275 | Oc1ccnc2ccc(Cl)cc12 |
| 189 to 190 | CCOC(=O)ON=C1Cc2ccccc2N(C(N)=O)c2ccccc21 |
| 269 to 270 | Cc1ccc(C(=O)C2=C(O)C(=O)N(c3ccc(C(C)C)nn3)C2c2ccc(C(C)C)cc2)cc1 (configuration not stated) |

| melting point [°C] | SMILES |
| --- | --- |
| 174 | Cc1nc(C(O)(Cn2cncn2)c2ccc(Cl)cc2)sc1C (configuration not stated) |
| 116 to 118 | COC(=O)CCC(CS(=O)(=O)c1ccc2ccccc2c1)C(=O)N(CCC1CCCCC1)CCC1CCCCC1 (configuration not stated) |
| 70 to 72 | COCc1ccc2c(c1)ncn2-c1cccc(-c2ccccc2)c1 |
| 128 to 130 | Cc1ccc(S(=O)(=O)Nc2cccc(Sc3ccccc3)n2)cc1 |
| 164 to 167 | COc1ccc2[nH]c(C(C)=O)cc2c1 |
| 101 to 103 | CCN(CC)C(=O)COc1ccc(C(=O)CBr)cc1OC |
| 68 to 69 | COc1ccc(COc2c(OC)cc(C=C(C(=O)OC(C)C)P(=O)(OC)OC)cc2OC)cc1 |
| 141 to 143 | O=S(=O)(Nc1ccc(I)cc1)c1ccccc1 |
| 46.5 to 47.5 | NCc1nc2ccccc2o1 |
| 126 to 128 | Brc1ccc2cc(Nc3ccccc3)ccc2c1 |
| 152 to 154 | CCOC(=O)Cn1cc(C(=O)OCC)c(=O)c2ccccc(=O)c21 |
| 127 | Cc1c(CC(=O)NCCCO[N+](=O)[O-])cc(-c2ccc(S(C)(=O)=O)cc2)n1-c1ccc(F)cc1 |
| 142 to 144 | COC(=O)C(=O)c1c(Cl)cc(OCCOc2ccc3ccccc3c2)cc1Cl |
| 95 | BrCc1ccc2nc(-c3cccs3)ccc2c1 |
| 173 to 174 | O=C(c1ccccc1)c1cnn2c(-c3cccc(N4CCCC4=O)c3)ccnc12 |
| > 300 | CCc1[nH]n(C2CCCC2)c2nc(-c3ccc(Cl)cc3O)nc(=O)c1-2 |
| 150 to 151 | COC(=O)C1=C2CCC(c3ccccc3)CN2CCC1=O (configuration not stated) |
| 161 to 162 | N#CC(C#N)=CN(N=C(C#N)C#N)c1ccc(Cl)cc1 |
| 68 to 70 | CC(O)(CCC#N)c1ccc(Oc2ccc(Cl)cc2)cc1 (configuration not stated) |
| 209 to 210 | CC(C)(C)OC(=O)NCc1ccc2cc(C(N)=O)[nH]c2c1 |
| 154 to 157 | O=C(c1ccc(Cl)cc1)c1ccc(CS(=O)(=O)C(F)F)cc1 |
| 141 to 142 | COc1nc(Cl)nc2c1ncn2C1CC(O)C(CO)O1 (configuration not stated) |
| 202 | FC(F)(F)c1ccc(Nc2nccc(-c3cccc(Cl)c3)n2)cc1 |
| 101 to 104 | COc1cccc(-c2ccc3c(c2)C2(CCCCC2)C(=NO)N3)c1 |
| 158 | O=C1C(=O)N(c2cccc3ccccc23)C(=O)N1c1ccc(Cl)cc1 |

| melting point [°C] | SMILES |
| --- | --- |
| 148 to 150 | CC(C)(C)OC(=O)NCCNC(=O)c1cocn1 |
| 146 to 148 | O=[N+]([O-])c1cccnc1Nc1ccc2c(c1)OCO2 |
| 308 to 310 | CNC(=O)c1c(NC(=O)CBr)c(OC)c(C(=O)NC)c(NC(=O)CBr)c1OC |
| 94 | NC(=O)N(O)Cc1ccc(CCCCCC(F)(F)F)s1 |
| 258 to 260 | CC(C)n1nc(-c2c(N)nc(N)nc2-c2ccccc2)ccc1=O |
| 75 to 78 | O=C1C(=Cc2ccccc2)CCCC1c1ccccc1 (configuration not stated) |
| 158 to 159 | CC1CC(C)(C)Nc2ccc3c(c21)C(c1ccc(Cl)cc1)Oc1ccccc1-3 (configuration not stated) |
| 149 to 151 | Oc1cc(-c2c(F)c(F)c(F)c(F)c2F)nn1-c1ccccc1 |
| 115 to 118 | CC(C)(C)OC(=O)NC(Cc1ccc([N+](=O)[O-])cc1)C(=O)NCC(=O)OCc1ccccc1 (configuration not stated) (Boc-[ξPhe(4-NO2)]-Gly-OBn) |
| 165 to 167 | CCOCc1nc2c(N)nc(C)c(C)c2n1CCC1CCN(Cc2ccccc2)CC1 |
| 180 to 182 | Cn1nc(C(F)(F)F)c(CN2C(=O)C3(COc4cc5c(cc43)OCO5)c3ccccc32)c1Cl (configuration not stated) |
| 187 to 189 | C[Si](C)(C)c1ccc(NC(=O)NC(=O)c2c(F)cccc2F)cc1 |
| 98 | COC(=O)C=Cc1ccc(C(=O)NC[C@H](NC(=O)OCc2ccccc2)C(=O)OC(C)(C)C)s1 |
| 195 to 196 | CCCCOc1c(CNC(=O)OC(C)(C)C)n(CC(C)C)c(=O)c2ccc(-c3nc(C(=O)O)cs3)cc12 |
| 222 to 225 | CCOc1c(C(=O)O)cnc2nn(C)cc12 |
| 143 to 146 | CC(C(=O)N(C)C)n1cc(C#N)c(-c2ccccc2)n1 (configuration not stated) |
| 146 to 148 | O=C(O)C(=O)c1c(F)c(F)c(OCCOc2ccc3ccccc3c2)c(F)c1F |
| 133 to 135 | Nc1ccccc1Oc1ncc(C(F)(F)F)cc1Cl |
| 108 to 110 | CC(C)c1cccc(C(C)C)c1NC(=O)[C@H](C)N(C)C(=O)OC(C)(C)C |
| 92 to 93 | CC(=O)N1CC(CCN2CCC(c3ccccc3)CC2)c2ccccc21 (configuration not stated) |
| 108 to 110 | COc1ccc(/C=C/c2cc(F)cc(F)c2)cc1 |
| 130 | COc1ccc(S(=O)(=O)N(CC(N)=O)c2ccc(N(C)C)cc2Cc2ccccc2Cl)cc1OC |

| SMILES | melting point [°C] |
| --- | --- |
| CN1C(=O)N(C)P(C)(=S)C1=O (configuration not stated) | 95 |
| CN1C(=O)C(NC(=O)NCc2ccccc2)N=C(c2ccccc2)c2ccccc21 (configuration not stated) | 240 to 242 |
| CC12CCC3C(CCC4CC(=O)CC(C)(O)C43C)C1C(O)CC2=O (configuration not stated) | 227 to 229 |
| N#Cc1c(C(F)(F)F)cc(N(Cc2ccccn2)Cc2ccccn2)cc1C(F)(F)F | 122 |
| CC(C)NCC(O)c1cc(F)cc(C#N)c1 (configuration not stated) | 85.5 to 86.5 |

— a melting point compilation (Tetko et al.; mined from patent text by program, amines drawn as free bases though some values may be those of a salt)
